Each structure is given as a SMILES string. ≈ marks a conversion by molar mass, not a printed value.

Our source for the MIC values is DBAASP.

Holding throughout (assay): ≥ marks a high value that may be exact or a test limit, other limits are often not marked, values filed in µg/mL are converted to µM
Experiment [1] has as its system Escherichia coli ATCC 25922.
Experiment [2] has as its system Staphylococcus aureus ATCC 25923.
Experiment [3] has as its system Candida albicans ATCC 20032.
The subject of experiment [4] is Bacillus subtilis ATCC 6633.
The test system of experiment [5] is Cryptococcus neoformans.
Experiment [6] has as its system Streptococcus mutans.
The test system of experiment [7] is Candida albicans.
Experiment [8] concerns Serratia marcescens.
For experiment [9], the system named is Escherichia coli.
Experiment [10] relates to Salmonella typhimurium.
Experiment [11] has as its system Pseudomonas putida.
The subject of experiment [12] is Bacillus subtilis.
For experiment [13], the system named is Saccharomyces cerevisiae.
In experiment [14] the test system is Staphylococcus aureus.
Experiment [15] relates to Streptococcus pneumoniae.
Experiment [16] concerns Staphylococcus aureus ATCC 6538.
Experiment [17] concerns Bacillus subtilis CCT 2576.
Experiment [18] concerns Pseudomonas aeruginosa ATCC 15442.
For experiment [19], the system named is Bacillus cereus.
For experiment [20], the system named is Bacillus anthracis.
Experiment [21] deals with Escherichia coli DH5alpha.
The subject of experiment [22] is Staphylococcus xylosus.
Experiment [23] concerns Escherichia coli JM109.
Experiment [24] concerns Micrococcus luteus ATCC 9341.

By MIC is commonly meant the smallest concentration in the dilution series that meets the test's criterion for growth inhibition. Low values mean inhibition by little substance, high ones a need for much substance. As to `CC[C@H](C)[C@H](N)C(=O)N[C@@H](CC(C)C)C(=O)NCC(=O)N1CCC[C@H]1C(=O)N[C@H](C(=O)N[C@@H](CC(C)C)C(=O)NCC(=O)N[C@@H](CC(C)C)C(=O)N[C@H](C(=O)N[C@@H](CO)C(=O)N[C@@H](CC(N)=O)C(=O)N[C@H](C(=O)N[C@@H](CC(C)C)C(=O)N[C@@H](CC(=O)O)C(=O)N[C@@H](CC(=O)O)C(=O)N[C@H](C(=O)N[C@@H](CC(C)C)C(=O)NCC(=O)N[C@H](C(=O)N[C@@H](CC(C)C)C(N)=O)[C@@H](C)CC)C(C)C)[C@@H](C)O)C(C)C)C(C)C` [ILGPVLGLVSNTLDDVLGIL], the minimal inhibitory concentration (MIC) was greater than 49.5 µM in [1], greater than 49.5 µM in experiment [2], no less than 49.5 µM in experiment [3] and no less than 49.5 µM in experiment [4].
Take `CC[C@H](C)[C@H](N)C(=O)N[C@@H](CC(C)C)C(=O)NCC(=O)N1CCC[C@H]1C(=O)N[C@H](C(=O)N[C@H](C(=O)N[C@@H](CCCCN)C(=O)N[C@H](C(=O)N[C@H](C(=O)NCC(=O)NCC(=O)N[C@H](C(=O)N[C@H](C(=O)NCC(=O)NCC(=O)N[C@@H](CC(C)C)C(=O)N[C@@H](CC(C)C)C(=O)N[C@@H](CCCCN)C(=O)N[C@@H](CC(N)=O)C(=O)N[C@@H](CC(C)C)C(N)=O)[C@@H](C)CC)C(C)C)[C@@H](C)CC)[C@@H](C)O)[C@@H](C)CC)C(C)C` [ILGPVIKTIGGVIGGLLKNL]: the MIC is greater than 50.6 µM in experiment [1], 4.76 µM (≈ 9.4 µg/mL) in experiment [2], 9.52 µM (≈ 18.8 µg/mL) in [3] and 9.52 µM (≈ 18.8 µg/mL) in [4].
On to `CC(C)C[C@H](NC(=O)[C@H](CC(C)C)NC(=O)[C@H](CCCN=C(N)N)NC(=O)[C@H](CCCN=C(N)N)NC(=O)[C@H](CC(C)C)NC(=O)[C@H](CC(C)C)NC(=O)[C@H](CCCN=C(N)N)NC(=O)[C@H](CCCN=C(N)N)NC(=O)[C@H](CC(C)C)NC(=O)[C@H](CC(C)C)NC(=O)[C@H](CCCN=C(N)N)NC(=O)[C@H](CCCN=C(N)N)NC(=O)[C@H](CC(C)C)NC(=O)[C@H](CC(C)C)NC(=O)[C@H](CCCN=C(N)N)NC(=O)[C@H](CCCN=C(N)N)NC(=O)[C@H](CC(C)C)NC(=O)[C@H](CC(C)C)NC(=O)[C@@H](N)CCCN=C(N)N)C(=O)N[C@@H](CCCN=C(N)N)C(=O)O` [RLLRRLLRRLLRRLLRRLLR], for which the MIC in experiment [5] was 2.95 µM (≈ 8 µg/mL); in experiment [6] it was 0.738 µM (≈ 2 µg/mL); in experiment [7] it was 2.95 µM (≈ 8 µg/mL); in [8] it was 0.738 µM (≈ 2 µg/mL); in experiment [9], 0.738 µM (≈ 2 µg/mL); in experiment [10] it was 0.369 µM (≈ 1 µg/mL). Moreover, the minimal inhibitory concentration (MIC) in experiment [11] was 0.738 µM (≈ 2 µg/mL); in experiment [12], 0.738 µM (≈ 2 µg/mL); in experiment [13], 2.95 µM (≈ 8 µg/mL); in [14] it was 0.369 µM (≈ 1 µg/mL); in [15] it was 0.738 µM (≈ 2 µg/mL).
Take `CC[C@H](C)[C@H](N)C(=O)N[C@@H](CC(C)C)C(=O)NCC(=O)N[C@H](C(=O)N[C@H](C(=O)N[C@@H](CC(C)C)C(=O)NCC(=O)N[C@@H](CC(C)C)C(=O)N[C@@H](CC(C)C)C(=O)N[C@@H](CCCCN)C(=O)NCC(=O)N[C@@H](CC(C)C)C(N)=O)[C@@H](C)CC)[C@@H](C)O` [ILGTILGLLKGL]: the MIC in experiment [16] worked out at 10.3 µM (≈ 12.5 µg/mL); in [1], 10.3 µM (≈ 12.5 µg/mL); in experiment [17], 1.24 µM (≈ 1.5 µg/mL); in [18], 1.4 µM (≈ 1.7 µg/mL).
`CC(C)C[C@H](NC(=O)[C@H](CC(C)C)NC(=O)[C@H](CO)NC(=O)[C@H](CCCCN)NC(=O)[C@H](CC(C)C)NC(=O)[C@@H]1CCCN1C(=O)[C@H](C)NC(=O)[C@H](Cc1ccccc1)NC(=O)[C@@H]1CCCN1C(=O)[C@H](CC(C)C)NC(=O)[C@@H](NC(=O)[C@H](CCCCN)NC(=O)[C@H](CCCCN)NC(=O)[C@@H](NC(=O)[C@H](CO)NC(=O)[C@@H](N)C(C)C)C(C)C)C(C)C)C(=O)N[C@@H](CO)C(=O)N[C@@H](Cc1ccccc1)C(=O)N[C@@H](C)C(=O)N[C@@H](Cc1ccccc1)C(=O)O` [VSVKKVLPFAPLKSLLSFAF]: the MIC in experiment [19] is no less than 117 µM; in experiment [9], 117 µM (≈ 256 µg/mL); in experiment [20], no less than 117 µM; in experiment [14], greater than 117 µM.
Take `CC[C@H](C)[C@H](N)C(=O)N[C@@H](CC(C)C)C(=O)N[C@H](C(=O)N[C@@H](CCCCN)C(=O)N[C@@H](CCCN=C(N)N)C(=O)N[C@@H](CCCCN)C(=O)O)[C@@H](C)CC` [ILIKRK]: the MIC in [21] and in experiment [22] was no less than 64 µM in each case.
Regarding `CC[C@H](C)[C@H](N)C(=O)N[C@@H](CC(N)=O)C(=O)N[C@@H](Cc1c[nH]c2ccccc12)C(=O)N[C@@H](CCCCN)C(=O)N[C@@H](CCCCN)C(=O)N[C@H](C(=O)N[C@@H](C)C(=O)N[C@@H](CCC(=O)O)C(=O)N[C@H](C(=O)NCC(=O)NCC(=O)N[C@@H](CCCCN)C(=O)N[C@H](C(=O)N[C@@H](CC(C)C)C(=O)N[C@@H](CO)C(=O)N[C@@H](CO)C(=O)N[C@@H](CC(C)C)C(N)=O)[C@@H](C)CC)C(C)C)[C@@H](C)CC` [INWKKIAEVGGKILSSL], the minimal inhibitory concentration (MIC) in experiment [23] is 4.31 µM (≈ 8 µg/mL); in [4], 1.08 µM (≈ 2 µg/mL).
Take `CC(C)C[C@H](NC(=O)[C@H](CCCN=C(N)N)NC(=O)[C@H](Cc1cnc[nH]1)NC(=O)[C@@H](NC(=O)[C@H](CCCN=C(N)N)NC(=O)CNC(=O)[C@@H](NC(=O)[C@@H]1CCCN1C(=O)[C@H](Cc1ccccc1)NC(=O)[C@H](CCC(N)=O)NC(=O)[C@H](CC(C)C)NC(=O)CNC(=O)[C@H](C)NC(=O)[C@@H](N)CCCN=C(N)N)C(C)C)C(C)C)C(=O)O` [RAGLQFPVGRVHRL]: the minimal inhibitory concentration (MIC) in experiment [5] was no less than 159 µM; in [6], no less than 159 µM; in experiment [7] it was greater than 159 µM; in [8], no less than 159 µM; in [9], 159 µM (≈ 256 µg/mL); in [10] it was no less than 79.7 µM. For the same molecule, the MIC in [11] is no less than 159 µM; in experiment [12], no less than 79.7 µM; in experiment [13] it was no less than 159 µM; in experiment [14], 159 µM (≈ 256 µg/mL); in experiment [15] it was no less than 79.7 µM.
The molecule `CC[C@H](C)[C@H](N)C(=O)N[C@@H](CC(C)C)C(=O)N1CCC[C@H]1C(=O)N[C@H](C(=O)N[C@@H](CCCCN)C(=O)N[C@H](C(=O)N1CCC[C@H]1C(=O)N[C@H](C(=O)N[C@H](C(=O)N1CCC[C@H]1C(=O)N[C@H](C(=O)N[C@@H](CCCN=C(N)N)C(=O)N[C@@H](CCCN=C(N)N)C(N)=O)[C@@H](C)CC)[C@@H](C)CC)[C@@H](C)CC)[C@@H](C)CC)[C@@H](C)CC` [ILPIKIPIIPIRR] came in with a minimal inhibitory concentration (MIC) in experiment [24] of 25 µM (≈ 38.5 µg/mL).
Regarding `CC(C)C[C@H](NC(=O)[C@@H](NC(=O)[C@@H]1CCCN1C(=O)[C@H](CC(C)C)NC(=O)[C@@H](N)Cc1ccccc1)C(C)C)C(=O)N[C@H](C(=O)N[C@@H](CCCCN)C(=O)N[C@H](C(=O)N[C@@H](Cc1ccccc1)C(=O)N[C@@H](CCCN=C(N)N)C(=O)N[C@@H](Cc1ccc(O)cc1)C(=O)N[C@@H](CO)C(=O)N[C@@H](CCCCN)C(=O)N[C@@H](CCCCN)C(=O)N[C@H](C(=O)N[C@@H](C)C(=O)N[C@@H](C)C(=O)NCC(=O)N[C@@H](CS)C(=O)N[C@@H](Cc1ccccc1)C(=O)O)[C@@H](C)O)C(C)C)C(C)C` [FLPVLVKVFRYSKKTAAGCF], the MIC in [19] is 28.1 µM (≈ 64 µg/mL); in experiment [9], greater than 56.3 µM; in experiment [20] it was no less than 113 µM; in experiment [14], greater than 113 µM.
